Marks after values point to notes of the source that are not given here.
How the values were obtained:
mongrel male mice [1] = assay: Passive cutaneous anaphylaxis reaction; format: in vivo; settings: PCA, oral 3 days, 2 µg/kg
Protocol: Experiments were carried out on mongrel male mice with initial body mass 22-24 g. Each group included 10 animals. Sensibilization of animals was accomplished by intradermal injection of 20-30 µl of the serum of mice obtained from preliminaryly immunized animals comprising reagent antibodies against chicken ovalbumin (OVA). […] In 48 hours after sensibilzation an anaphylaxis-provoking OVA dose (1 mg and 0,2 ml Evans blue in 0.2 ml normal saline) were intravenously injected to mice. Passive cutaneous anaphylaxis reaction intensity (PCA) was determined in 30 minutes by the size (area) of a blue spot on the internal skin surface in the site of reagent anibodies' administration. Spot size was measured in two mutually perpendicular directions and the result was expressed in mm^2.

mongrel guinea-pigs = assay: Food anaphylaxis (active anaphylactic shock) in OVA-sensitized guinea pigs; settings: oral 3 days before provoking anaphylaxis, 1000 µg/kg
Male guinea pigs = assay: Antigen-induced bronchospasm in actively sensitized guinea pigs; format: in vivo; settings: for Bronchospasm (percent of the maximum value): sensitized guinea pigs
Protocol: Antiasthmatic effect of the test compounds was studied using an antigen-induced bronchospasm model in actively sensitized guinea pigs according to the Andersson method [Andersson P. Antigen induced bronchial anaphylaxis in actively sensitized guinea pig. Allergy (1980), Vol. 35, pp. 65-71].
Male guinea pigs were sensitized with intramuscular injection of 0.5 ml suspension comprising 20 micrograms ovalbumin (OVA, manufactured by the Sigma company [grade III]) and 100 mg Al(OH)3 per one animal. Anaphylaxis-provoking dose 150-200 µg/kg OVA in 0.1 ml normal saline was intravenously (v. jugularis) injected on day 26 after sensibilization. Bronchospasm induction and measuring external respiration parameters were carried out according to the method described in Yu-Hong L., Barnes P., Rogers D. Inhibition of neurogenic plasma exudation and bronchoconstriction by a K+ channel activator, BRL 38227, in guinea pig airways in vivo. Europ. J. Pharmacol. (?), Vol. 239, pp.257-259]. Measurement of respiration parameters was performed using a transducer (Ugo Basel, model 7020), connected with a cannula and a recorder (Millichrome), recording breathing amplitude. […] Efficacy of compounds was determined by change in bronchospasm value.
Inthal was used as a reference drug that was administered to animals at a dose 5 µg/kg according to the same dosage regimen as the test substances were administered. The control group of animals received equivalent amount of normal saline.
Groups of animals: group 1 - control; group 2 - animals given Inthal; group 3 - animals given oral compound XLIV; group IV - animals given oral compound III; group 5 - animals given intratracheal compound III; group 6 - animals given compound XLIX, group 7 - animals given compound XXXI, group 8 - animals given compound XLVI; group 9 - animals given compound VI, group 10 - animals given compound XLVIII.

[C^14]-arachidonic acid = Metabolism of [C^14]-arachidonic acid in pulmonary tissue homogenate of treated mice; format: in vivo, CBA male mice; settings: CBA mice lung homogenate; 80 µg/kg for three days
Protocol: Studies were carried out on CBA male mice fed a standard vivarium ration. […] Then animals were sacrified, their lungs were taken out, frozen in liquid nitrogen, homogenized in a glass homogenizer manufactured by the Wheaton company (U.S.A.) at +4°C in 10 volumes 0.05 M Tris-HCl buffer. […] Densitometry of the autoradiochromatograms obtained on the X-ray films X-Omat AR (Kodak, U.S.A.) and HS 11 (ORWO, Germany) were performed on the KS 3 densiscan (Kipp and Zonnen, Holland). Quantative analysis of individual eucosanoids was carried out using radiometry of the fractions obtained with high performance liquid chromatography (the Gilson company HPLC-system, France; the Du Pont company ZORBAX C8 column, U.S.A.) and with elution of spots on TLC-plates.

P-450 and B5 cytochromes = assay: Hepatic content of P-450 and B5 cytochromes (microsomal liver fraction); format: in vivo, guinea pigs; settings: guinea pig liver microsomes; administered three times 72, 48 and 24 hours before
Protocol: Change in hepatic monooxygenase system was studied on mongrel male guinea pigs with initial mass 250-300 g; each group included 12 animals. […]. The content of P-450 and […] cytochromes was measured according to the published method [Omura T., Scato R. The monooxide binding pigment of liver microsomes. 11. Solubilization, purification and properties. J. Chem. (1964), Vol. 239, pp. 2379-2385] in microsomal liver fraction, isolated using differential centrifugation method [Ahokas J., Pelkonen O., Karkin N. Charcaterisation of BP-hydroxylase of Trout-liver. Cancer Res. (1977), Vol. 37, pp. 3737-3743]. The priority method {Izotov M.V., Scherbakov V.M., Devichensky V.M. et al. The method of determining the content of P-450 cytochrome isoenzymes in liver microsomes. The inventor's certificate No 1,488,738. B.I. (1989), No 3.-6.06.09, ICI, 01. - No 33/15, No 33/48]. Microsomal protein content was determined using the modified Lowry method [Hartree E. Determination of protein: a modification of the Lowry method, that gives a linear photometric responces. Ann. Biochem. (1972), Vol. 48, pp. 422-427].

[2] = tested on: hepatic P-450 cytochrome system; assay: Hexenal sleep duration in mice; format: in vivo; settings: CBF1 mice, oral 3 days, control 25.91 ± 1.57
Outline: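 Male mice (several inbred/hybrid lines, 18-20 g, n=10) and mongrel male guinea pigs (250-300 g, n=24) given compounds orally in drinking water for three days at 50 and 500 µg/kg. Hexenal given 24 h after last dose ([…]); sleep duration recorded in minutes.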

mongrel male mice [3] = assay: Delayed hypersensitivity induced by picryl chloride (TCB), local ointment; format: in vivo; settings: mice, TCB
Protocol: Effect study of the compounds on the delayed type hypersensitivity reaction induced in mice by 2.4.6-trichlorobenzol (TCB) was carried out according to the method of Tarayre et al. [Tarayre J.P., Barbara M., Aliaga M., Tisne-Versilles. Comparative actions of immunosuppressants, glucocorticoids and non-steroidal antiinflammatory drugs on various models of delayed hypersensitivity and on a non-immune inflammation in mice. Arzneim.-Forsch. Drug Res. (1990), Vol. 40, pip.1125-1131].
Studies were conducted on mongrel male mice with initial body mass 30-35 g. Each group included 10 animals. Mice were sensitized with 0.1 ml 3% TCB solution in acetone application on a shaved abdominal area. In 7 days, the anaphylaxis-provoking TCB dose (0.025 ml of 3% solution) was applied on both surfaces of the right ear. In 30 minutes 0.05 ml of the test ointment were rubbed into the same surfaces. 24 hours after edema induction, mice were sacrified, ears were cut off and weighed. Allergic reaction intensity was assessed by change in weight in grams of the right ear (the test one) in relation to the left ear (the control ear).
Allergic reaction inhibition expressed in percent was calculated according to the formula: 100-[(R-L(exper.))/(L):(R-L(control))/(L)x100](%) [formula] where R - the right ear weight, L - the left ear weight.
The test compounds were applied on the ear in the form of 1% and 5% ointment the base of which were 10% methylcellulose solution and propylene glycol at 1:1 ratio.
Groups of animals: • Group 1 - control, ointment base without active substance was applied on the ear of animals. • Group 2 - ointment base comprising 1% compound III was applied on the ear of animals. • Group 3 - ointment base comprising 1% compound XVII was applied on the ear of animals. • Group 4 - ointment base comprising 5% compound XLVIII was applied on the ear of animals.

[4] = tested on: Strain Aichi of type A human influenza virus; format: in vivo; settings: 50 µg/kg orally
white mongrel male rats = assay: Paw edema induced by Freund's complete adjuvant; format: in vivo; settings: rats, FCA edema
Protocol: Experiment was carried out on white mongrel male rats weghing 280-300 g. The model of paw edema induced by Freund's complete adjuvant (FCA), was reproduced according to the method of Ezamuzie and Umezurike [Ezamuzie Ch., Umezurike C.C. Effect of histamine H2-receptor antagonists on acute inflammatory of the rat paw oedema. J. Pharmacol. (1989), Vol. 41, pp. 261-265]. Paw volume measurement was done using a plethysmograph (Ugo Basile). Inhibition of inflammatory reaction expressed in percent, as calculated according to the formula: 100-[(R-L(exper.))/(L):(R-L(control))/(L)x100](%) [formula] where R - the right paw volume, L - the left paw volume.
Each group included 10 animals.
Group of animals: • Group 1 - control, animals were administered 0.5 ml of 1% starch solution. • Group 2 - animals were administered the compound XLVIII. • Group 3 - animals were administered the compound III. • Group 4 - animals were administered Naproxene.

[5] = 50 µg/kg per os, 72, 48 and 18 hours prior to bronchospasm induction
[6] = intragastral four times 50 µg/kg

## CCOC(=O)N1CCC(=C2c3ccc(Cl)cc3CCc3cccnc32)CC1 [Claritine, reference compound]
Mongrel male mice [1]
  Percent of the reaction inhibition: 92.8%
  Reaction intensity, mm^2: 6.4 ± 2.3**^2 mm^2
Mongrel guinea-pigs
  Anaphylactic index: 2.03
  Lethality in percent: 25.0%
  Seizures in percent: 53.3%

## O=C([O-])c1cc(=O)c2c(OCC(O)COc3cccc4oc(C(=O)[O-])cc(=O)c34)cccc2o1.[Na+].[Na+] [Inthal, reference compound]
Male guinea pigs; as compared with the control values
  decrease in bronchospasm value: ~50%
Male guinea pigs; 5 mg/kg, 72, 48 and 18 hours prior to bronchospasm induction
  Bronchospasm (percent of the maximum value): 40.7 3.4* percent of the maximum value

## CCC1(c2ccccc2)C(=O)NC(=O)NC1=O [Phenobarbital, reference compound]
[C^14]-arachidonic acid
  5-HETE+HHT, percent of AA conversion: 10.5 ± 0.26% of AA conversion
  6-keto-PGF1α, percent of AA conversion: 4.12 ± 0.12% of AA conversion
  12-, 15-HETE, percent of AA conversion: 27.1 ± 0.11% of AA conversion
  PGE2, percent of AA conversion: 3.82 ± 0.14% of AA conversion
  PGF2α, percent of AA conversion: 7.91 ± 0.08% of AA conversion
  Phospholipids, percent of AA conversion: 8.18 ± 0.21% of AA conversion
  TXB2, percent of AA conversion: 6.21 ± 0.18% of AA conversion
  Unmetabolized AA, percent of AA conversion: 14.5 ± 0.28% of AA conversion
P-450 and B5 cytochromes
  B5 /P-450: 0.81
  B5 cytochrome nM/mg of protein: 1.21 ± 0.10 nM/mg of protein
  P-450B cytochromes nM/mg of protein: 0.76 ± 0.08 nM/mg of protein
  P-450B/p-450L: 1.02
  P-450 cytochrome nM/mg of protein: 1.50 ± 0.09 nM/mg of protein

## NC(CCC(=O)NCCc1c[nH]c2ccc(O)cc12)C(=O)O [compound XLIX, γ -L-glutamylserotonine]
[2]; 50 µg/kg
  Hexenal sleep duration (minutes): 19.68 ± 2.04** minutes
Male guinea pigs; [5]
  Bronchospasm (percent of the maximum value): 33.0 9.4* percent of the maximum value

## N[C@@H](CCC(=O)NCCc1c[nH]c2ccccc12)C(=O)O [compound XLVIII, γ -L-glutamyltryptamine]
Mongrel male mice [3]; 5% ointment
  Reaction inhibition (%): 54%
  weight increment: 3.7 ± 0.81 g
Mongrel male mice [3]; 5% ointment on right ear 30 minutes after challenge, 24 hours
  Weight of years (g) Right: 17.9 ± 0.94 g
Mongrel male mice [3]; left (control) ear of animals given 5% ointment
  Weight of years (g) left: 14.2 ± 0.98 g
[2]; 50 µg/kg
  Hexenal sleep duration (minutes): 16.27 ± 1.26** minutes
[4]; series with control - 1 (5.76), 3 days before and 10 days following infection
  MLT, days: 9.58*^1 days
[4]; series with control - 1 (16.7)
  Survival rate in percent: 34.5*^1%
[4]; series with control - 1
  Protection degree in percent: 17.8%
Male guinea pigs; [5]
  Bronchospasm (percent of the maximum value): 22.0 3.4* percent of the maximum value
White mongrel male rats; [6]
  Inflammation inhibition (%): 19%
  Volume increment: 0.65 ± 0.04
  Volume of paws (conditional units) left: 1.30 ± 0.62 conditional units
White mongrel male rats; intragastral four times 50 µg/kg 72, 48, 24 and 1 hour before FCA
  Volume of paws (conditional units) Right: 1.95 ± 0.48 conditional units

## CCCCCC(=O)NCCc1c[nH]c2ccccc12 [compound XXXI, N-HEXANOYLTRYPTAMINE]
[2]; 50 µg/kg
  Hexenal sleep duration (minutes): 12.59 ± 0.88*** minutes
[2]; 500 µg/kg
  Hexenal sleep duration (minutes): 12.61 ± 1.45*** minutes
Male guinea pigs; [5]
  Bronchospasm (percent of the maximum value): 39.3 7.6* percent of the maximum value
